In the supplement of paper PMC10883282 one finds relative viability data, which are given here for nine compounds.

± gives the standard deviation of the averaged measurements.

The subject of the experiment is SW872. Put plainly: relative viability vs DMSO control (72 h) (fraction); higher = more viable cells. In short, it runs like this: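 Sarcoma cell lines were seeded in 384-well plates at densities chosen for 80–90% confluence, then 24 h later given 2.5 µl of serially diluted compound drawn from source plates spanning 10 mM to 0.0002 mM. They were held 72 h at 37 °C, 5% CO2, with 0.1% DMSO vehicle and a 5 µM positive control included. Relative viability was read with ATPLite as percent growth and averaged over up to triplicate wells. Rescaling placed full at 1 and none at 0.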

`Cc1cc(C)c(/C=C2\C(=O)Nc3ccccc32)[nH]1` [Semaxanib]: the relative viability runs as follows: (0.00017 µM) 0.968 ± 0.038; (0.00051 µM) 0.968 ± 0.024; (0.00152 µM) 0.938 ± 0.084; (0.00457 µM) 0.933 ± 0.067; (0.01372 µM) 0.936 ± 0.062; (0.04115 µM) 0.953 ± 0.067. The relative viability by setting is: (0.1235 µM) 0.979 ± 0.022; (0.3704 µM) 0.99 ± 0.028; (1.111 µM) 0.963 ± 0.042; (3.333 µM) 0.972 ± 0.031; (10 µM) 0.8936 ± 0.0083.
`CC1(C)CNc2cc(NC(=O)c3cccnc3NCc3ccncc3)ccc21` [Motesanib]: the relative viability reads like this: (0.00017 µM) 1 ± 0.03; (0.00051 µM) 0.988 ± 0.014; (0.00152 µM) 0.972 ± 0.025; (0.00457 µM) 0.971 ± 0.029; (0.01372 µM) 0.95 ± 0.047; (0.04115 µM) 0.98 ± 0.012. Moreover, the relative viability reads like this: (0.1235 µM) 0.971 ± 0.035; (0.3704 µM) 0.999 ± 0.015; (1.111 µM) 0.978 ± 0.021; (3.333 µM) 0.958 ± 0.035; (10 µM) 0.811 ± 0.028.
As to `CNC(=O)c1ccc(-c2cnc3ncc(Cc4ccc5ncccc5c4)n3n2)cc1F` [Capmatinib], the relative viability runs as follows: (0.00017 µM) 1.04 ± 0.041; (0.00051 µM) 1.03 ± 0.026; (0.00152 µM) 1.04 ± 0.048; (0.00457 µM) 1.03 ± 0.025; (0.01372 µM) 1.05 ± 0.049; (0.04115 µM) 1.05 ± 0.022. Moreover, the relative viability came out at 1.03 ± 0.043 (0.1235 µM); 1.06 ± 0.029 (0.3704 µM); 0.987 ± 0.024 (1.111 µM); 1.02 ± 0.012 (3.333 µM); 1 ± 0.019 (10 µM).
With `CC(C)N1CCN(Cc2cnc(-c3cc(-c4cccc5[nH]ccc45)cc4[nH]ncc34)o2)CC1` [Nemiralisib], the relative viability stood at 0.975 ± 0.035 (0.00017 µM); 0.982 ± 0.036 (0.00051 µM); 0.945 ± 0.043 (0.00152 µM); 0.945 ± 0.018 (0.00457 µM); 0.916 ± 0.033 (0.01372 µM); 0.949 ± 0.042 (0.04115 µM). The relative viability by setting is: (0.1235 µM) 0.952 ± 0.018; (0.3704 µM) 0.896 ± 0.014; (1.111 µM) 0.819 ± 0.032; (3.333 µM) 0.622 ± 0.043; (10 µM) 0.448 ± 0.017.
As for `CO[C@H]1C[C@@H]2CC[C@@H](C)[C@@](O)(O2)C(=O)C(=O)N2CCCC[C@H]2C(=O)O[C@H]([C@H](C)C[C@@H]2CC[C@@H](OP(C)(C)=O)[C@H](OC)C2)CC(=O)[C@H](C)/C=C(\C)[C@@H](O)[C@@H](OC)C(=O)[C@H](C)C[C@H](C)/C=C/C=C/C=C/1C` [Ridaforolimus], the relative viability was 0.974 ± 0.036 (0.00017 µM); 0.833 ± 0.034 (0.00051 µM); 0.747 ± 0.021 (0.00152 µM); 0.7118 ± 0.0071 (0.00457 µM); 0.626 ± 0.035 (0.01372 µM); 0.6 ± 0.034 (0.04115 µM). Besides, the relative viability by setting is: (0.1235 µM) 0.5981 ± 0.0039; (0.3704 µM) 0.597 ± 0.0072; (1.111 µM) 0.579 ± 0.012; (3.333 µM) 0.565 ± 0.017; (10 µM) 0.565 ± 0.015.
`Nc1cc(C(F)(F)F)c(-c2cc(N3CCOCC3)nc(N3CCOCC3)n2)cn1` [Buparlisib] displayed a relative viability (0.00017 µM) of 0.994 ± 0.037; a relative viability (0.00051 µM) of 0.96 ± 0.046; a relative viability (0.00152 µM) of 0.995 ± 0.031; a relative viability (0.00457 µM) of 0.958 ± 0.019; a relative viability (0.01372 µM) of 0.964 ± 0.025; a relative viability (0.04115 µM) of 0.946 ± 0.055. Further, the relative viability is, setting by setting: (0.1235 µM) 0.901 ± 0.016; (0.3704 µM) 0.765 ± 0.035; (1.111 µM) 0.543 ± 0.021; (3.333 µM) 0.249 ± 0.014; (10 µM) 0.158 ± 0.0092.
`Cc1ccc(F)c(NC(=O)Nc2ccc(-c3cccc4[nH]nc(N)c34)cc2)c1` [Linifanib]: the relative viability came out at 1.07 ± 0.042 (0.00017 µM); 1.06 ± 0.048 (0.00051 µM); 1.07 ± 0.028 (0.00152 µM); 1.02 ± 0.027 (0.00457 µM); 1.012 ± 0.0025 (0.01372 µM); 1.01 ± 0.015 (0.04115 µM). Moreover, the relative viability was 1.01 ± 0.053 (0.1235 µM); 0.991 ± 0.022 (0.3704 µM); 1.02 ± 0.033 (1.111 µM); 1.05 ± 0.049 (3.333 µM); 1.03 ± 0.076 (10 µM).
As for `N#CC[C@H](C1CCCC1)n1cc(-c2ncnc3[nH]ccc23)cn1` [Ruxolitinib], the relative viability by setting is: (0.00017 µM) 1.02 ± 0.032; (0.00051 µM) 1.048 ± 0.0078; (0.00152 µM) 1.052 ± 0.009; (0.00457 µM) 1.01 ± 0.014; (0.01372 µM) 0.9983 ± 0.0075; (0.04115 µM) 0.998 ± 0.038. Further, the relative viability is 0.974 ± 0.046 (0.1235 µM); 0.954 ± 0.059 (0.3704 µM); 0.914 ± 0.075 (1.111 µM); 0.886 ± 0.041 (3.333 µM); 0.729 ± 0.024 (10 µM).
As for `C=CC(=O)Nc1cccc(Oc2nc(Nc3ccc(N4CCN(C)CC4)cc3)nc3ccsc23)c1` [Olmutinib], the relative viability reads like this: (0.00017 µM) 1.01 ± 0.04; (0.00051 µM) 1.03 ± 0.011; (0.00152 µM) 1.02 ± 0.029; (0.00457 µM) 1.03 ± 0.034; (0.01372 µM) 1.034 ± 0.0086; (0.04115 µM) 1.01 ± 0.044. Moreover, the relative viability (0.1235 µM) came to 1.01 ± 0.011; the relative viability (0.3704 µM) came to 1.02 ± 0.018; the relative viability (1.111 µM) amounted to 1.011 ± 0.0092; the relative viability (3.333 µM) was 0.873 ± 0.05; the relative viability (10 µM) is 0.625 ± 0.015.
